For data set [1], the target named is T1, biotinylated beta-catenin (Homo sapiens, UniProt P35222).
T1 sequence (P35222 1-781): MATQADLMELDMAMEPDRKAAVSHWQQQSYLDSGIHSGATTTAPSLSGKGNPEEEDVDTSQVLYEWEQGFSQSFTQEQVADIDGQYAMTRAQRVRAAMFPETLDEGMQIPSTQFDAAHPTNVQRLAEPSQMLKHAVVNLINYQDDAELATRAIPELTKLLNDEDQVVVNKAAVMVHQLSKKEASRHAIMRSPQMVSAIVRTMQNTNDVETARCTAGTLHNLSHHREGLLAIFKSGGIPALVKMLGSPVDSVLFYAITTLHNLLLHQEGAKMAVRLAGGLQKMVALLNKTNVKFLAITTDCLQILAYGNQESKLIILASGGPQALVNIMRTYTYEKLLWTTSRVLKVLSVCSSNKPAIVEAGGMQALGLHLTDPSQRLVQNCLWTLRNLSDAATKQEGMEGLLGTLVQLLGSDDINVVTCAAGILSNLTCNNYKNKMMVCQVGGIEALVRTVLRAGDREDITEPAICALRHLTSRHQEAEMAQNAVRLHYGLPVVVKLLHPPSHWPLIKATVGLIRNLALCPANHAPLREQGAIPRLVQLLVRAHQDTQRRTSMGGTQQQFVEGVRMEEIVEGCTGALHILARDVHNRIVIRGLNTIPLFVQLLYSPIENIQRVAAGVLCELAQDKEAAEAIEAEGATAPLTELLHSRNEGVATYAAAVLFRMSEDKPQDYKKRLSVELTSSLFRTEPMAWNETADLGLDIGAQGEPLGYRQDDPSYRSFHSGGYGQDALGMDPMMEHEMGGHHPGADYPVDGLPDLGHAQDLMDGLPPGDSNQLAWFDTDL
The experiment in a line: Surface Plasmon Resonance (Biacore). Type of data set: binding. The method, then:
Additionally or alternatively, binding to beta-catenin may be measured by Surface Plasmon Resonance. In an exemplary assay, approximately 6 nmol dried peptide diluted in buffer (50 mM Tris pH 8.0, 300 mM NaCl, 2% glycerol, 0.5 mM TCEP, 0.5 mM EDTA, 0.005% Tween-20, 1 mg/mL CM Dextran, 0.02% w/v sodium azide) was assayed on a Biacore X100 using the Biacore Biotin CAPture Kit (GE Healthcare) and biotinylated beta-catenin. Results were analyzed using the Biacore X100 Evaluation Software. […] FPO217c (Isomer 2) bound to the armadillo domain of β-catenin with a Kd of 2 nM.
For orientation: In SPR one partner is held on a chip, and binding of the other changes the refractive index at the surface.

A short description of data set [2]: Solubility in DPBS (A280 of supernatant). Type of data set: physicochemical. The conditions noted are these: DPBS. The procedure, abridged: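 Dried peptide reconstituted in DPBS in triplicate, vortexed, sonicated and centrifuged. Supernatant A280 measured; concentration calculated using the tryptophan extinction coefficient.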
Data set [3] addresses T2, full-length beta-catenin (Axin site) (Homo sapiens, UniProt P35222).
T2 construct: 15 nM full-length beta-catenin, 20 nM FITC labeled peptide in buffer
T2 sequence (P35222 1-781): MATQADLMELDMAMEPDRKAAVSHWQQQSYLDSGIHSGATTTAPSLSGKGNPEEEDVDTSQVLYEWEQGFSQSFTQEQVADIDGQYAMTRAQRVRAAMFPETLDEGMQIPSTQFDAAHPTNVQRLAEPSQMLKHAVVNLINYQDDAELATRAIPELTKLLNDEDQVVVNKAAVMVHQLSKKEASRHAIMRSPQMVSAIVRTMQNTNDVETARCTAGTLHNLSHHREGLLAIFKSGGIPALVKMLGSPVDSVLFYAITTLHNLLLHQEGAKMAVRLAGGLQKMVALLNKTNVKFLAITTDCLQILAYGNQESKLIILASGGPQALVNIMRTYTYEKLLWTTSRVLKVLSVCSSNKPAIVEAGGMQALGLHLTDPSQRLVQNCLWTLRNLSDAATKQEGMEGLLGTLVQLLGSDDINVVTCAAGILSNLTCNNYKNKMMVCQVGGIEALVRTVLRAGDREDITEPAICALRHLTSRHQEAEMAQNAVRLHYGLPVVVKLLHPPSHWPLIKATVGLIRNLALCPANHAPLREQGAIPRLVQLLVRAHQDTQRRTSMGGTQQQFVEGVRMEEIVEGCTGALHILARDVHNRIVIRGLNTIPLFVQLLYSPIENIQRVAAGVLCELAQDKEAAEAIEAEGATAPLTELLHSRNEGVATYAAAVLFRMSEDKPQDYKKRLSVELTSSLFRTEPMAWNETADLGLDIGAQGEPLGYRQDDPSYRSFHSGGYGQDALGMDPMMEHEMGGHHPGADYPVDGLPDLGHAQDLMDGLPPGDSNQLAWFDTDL
The experiment in a line: Competition fluorescence polarization assay (Axin site probe). The conditions noted are these: competition fluorescence polarization, Table 2; read-out: in vitro FP EC50. The data set is classed as binding. The procedure, abridged: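 Competition FP: 15 nM full-length β-catenin pre-incubated 5 min with 20 nM FITC-labelled stapled Axin-site peptide, then titrated peptide added (3-fold series from 5 μM) for 15 min in the dark. Buffer 50 mM Tris pH 8.0, 250 mM NaCl, 2% glycerol, 0.5 mM EDTA; duplicate reads.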
For orientation: Polarisation of emitted light reports the rotation of a fluorescent probe.

A short description of another data set: Plasma PK in rats. To be noted: IV 0.5 mg/kg, male Sprague-Dawley rats. The data set is classed as in vivo. The method, then:
(§1) FIG. 6. Exemplary pharmacokinetic properties. Peptides were formulated in 10% DMSO:90% saline and dosed by IV at 0.5 mg/kg per compound in three male Sprague-Dawley rats. Serial bleed time-points were taken at 2 min, 6 min, 10 min, 15 min, 30 min, 1, 2, 4, 6, 8, 12 and 24 h and analyzed by quantitative LC/MS using a Thermo Q-Exactive Focus LC/MS/MS. Samples were prepared by protein precipitation with MeOH. Data were fit to a two-compartment model.
as §1, with “Various technologies can be utilized to assess properties of provided agents, e.g., stapled peptides, in accordance with the present disclosure. In some embodiments, plasma PK methods are used to assess” for “FIG. 6. Exemplary”, “In an exemplary assay, peptides” for “Peptides”, “model. […] Exemplary data are presented, e.g., in FIG. 6.” for “model.”

Setting [4] is: Biacore, biotinylated beta-catenin, read-out: Kd.
Setting [5] is: Table 3 Part A, read-out: Binding Kd.
Where [6] appears, read: Table 3 Part A, read-out: Solubility in DPBS.

The results in this text go back to patent publication US11198713B2, “Agents modulating beta-catenin functions and methods thereof” (FOG PHARMACEUTICALS, INC., priority 2017, dated 2021).

Converted amounts (≈) assume the structure as drawn. Read-outs that look alike come from different tables or passages of the source. Numbered stars: 1 amine (or outer) side, 2 acyl side, 3 side chain; on linkers, the order of the positions; unused ones are H or OH. Bridge positions count the residues as written; N and C are the ends. Square brackets hold non-standard residues; d marks the D form. Peptide text beside a SMILES is read from it. dαMeDab(Me) = CN(CC[C@@](C)(N[*:1])C(=O)[*:2])[*:3]; X1 = O=C([C@]1(N[*:1])CCN([*:3])C1)[*:2]; X2 = O=C(OCC=CCOC(=O)[*:2])[*:1] Some results are limits rather than exact numbers.

By Kd is commonly meant the equilibrium constant for the complex coming apart. A word on the solubility: it is the dissolved amount per volume that the medium holds. What is called EC50 is the concentration that produces a half-maximal response. In general, half-life refers to the time needed for the level to fall by half in the phase considered. A lower half-life goes with fast loss.

As for `CC[C@H](C)[C@@H]1NC(=O)[C@H](Cc2c[nH]cn2)NC(=O)[C@H](C)NC(=O)[C@H](CC(=O)O)NC(=O)[C@H](CC(C)C)NC(=O)[C@H]([C@@H](C)CC)NC(=O)[C@](C)(NC(=O)[C@H](C)NC(C)=O)CCCCCCC=CCOC(=O)N2CC[C@@](C(=O)N[C@@H](CCCNC(=N)N)C(=O)N[C@H](C(=O)N[C@@H](Cc3c[nH]c4ccccc34)C(N)=O)C(C)C)(C2)NC1=O` (single isomer, unassigned) [FPO217c Isomer 2, Ac-AR8ILDAHIMBRVW (SEQ ID NO: 280)], the results for the Kd in data set [1] (setting [4]) and in data set [1] (setting [5]) were 2 nM and 4 nM, respectively. Besides, the solubility in data set [2] (Table 2, read-out: Solubility) was 7 µM (≈ 11.1 µg/mL); in data set [2] (setting [6]), 12 µM (≈ 19 µg/mL). Further, in data set [3], the EC50 was < 100 nM. In the data set “Plasma PK in rats” (rat, plasma), the half-life was > 1 h.
For `CC[C@H](C)[C@@H]1NC(=O)[C@H](Cc2c[nH]cn2)NC(=O)[C@H](C)NC(=O)[C@H](CC(=O)O)NC(=O)[C@H](CC(C)C)NC(=O)[C@H]([C@@H](C)CC)NC(=O)[C@](C)(NC(=O)[C@H](C)NC(C)=O)CCN(C)C(=O)OCC=CCOC(=O)N2CC[C@@](C(=O)N[C@@H](CCCNC(=N)N)C(=O)N[C@H](C(=O)N[C@@H](Cc3c[nH]c4ccccc34)C(N)=O)C(C)C)(C2)NC1=O` [FP0597c, Ac-A-MG-I-L-D-A-H-I-MB-R-V-W-NH2] (Ac-A[dαMeDab(Me)]ILDAHI[X1]RVW-NH2; linker 2-9 via X2), the Kd in data set [1] (setting [4]) was 7 nM; in data set [1] (Table 2, read-out: Kd by SPR), 4 nM; in data set [1] (setting [5]), 4 nM. Also, the solubility in data set [2] (Table 2, read-out: Solubility) was 98 µM (≈ 158 µg/mL); in data set [2] (read-out: solubility), 98 µM (≈ 158 µg/mL). In data set [2] (setting [6]), the solubility thermodynamic was 98 µM (≈ 158 µg/mL). Moreover, the EC50 in data set [3] was < 100 nM. Further, the “plasma half-life compared with FP0217c (Isomer 2)” value in “Plasma PK in rats” is reported as “shorter”.
